From BindingDB's records for doi:10.7270/Q2HM56V2 (The Scripps Research Institute Molecular Screening Center, 2008)

Biological target: T1, Signal transducer and activator of transcription 1-alpha/beta (Homo sapiens, UniProt P42224)
T1 sequence (P42224 whole entry): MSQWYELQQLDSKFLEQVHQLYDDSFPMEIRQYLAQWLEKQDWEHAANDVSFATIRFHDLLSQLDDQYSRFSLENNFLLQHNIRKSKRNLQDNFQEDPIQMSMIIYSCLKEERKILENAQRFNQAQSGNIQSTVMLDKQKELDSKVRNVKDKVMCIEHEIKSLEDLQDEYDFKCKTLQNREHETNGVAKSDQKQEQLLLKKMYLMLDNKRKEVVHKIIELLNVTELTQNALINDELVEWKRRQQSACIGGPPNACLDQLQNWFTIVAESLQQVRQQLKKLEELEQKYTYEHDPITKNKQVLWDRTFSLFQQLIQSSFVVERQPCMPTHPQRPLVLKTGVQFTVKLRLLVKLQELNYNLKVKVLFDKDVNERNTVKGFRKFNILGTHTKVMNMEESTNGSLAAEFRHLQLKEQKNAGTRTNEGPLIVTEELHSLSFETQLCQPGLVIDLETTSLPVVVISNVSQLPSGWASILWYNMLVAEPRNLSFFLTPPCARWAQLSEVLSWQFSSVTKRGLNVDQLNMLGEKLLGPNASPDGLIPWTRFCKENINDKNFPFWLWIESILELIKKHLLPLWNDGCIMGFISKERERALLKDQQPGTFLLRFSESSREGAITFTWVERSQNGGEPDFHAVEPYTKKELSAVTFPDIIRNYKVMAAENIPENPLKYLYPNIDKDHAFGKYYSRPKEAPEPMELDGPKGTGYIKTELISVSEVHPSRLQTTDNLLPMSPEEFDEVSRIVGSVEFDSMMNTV
Assay: PubChem AID 1406

**Q.** Cc1[nH]n(-c2ccccc2)c(=O)c1C=C1C(=O)NC(=O)NC1=O was tested. Which EC50 did it give?
**A.** > 55.7 µM
